Test results reported in ChEMBL document CHEMBL5500406, “Discovery of Novel Proteolysis-Targeting Chimera Molecules as Degraders of Programmed Cell Death-Ligand 1 for Breast Cancer Therapy” (J Med Chem, 2024).
Active and inactive are the calls of the source. The calls are words filed in the database; no cut-off is given here.

Tests used:
[1] = test system: 4T1; assay: Antitumor activity against mouse 4T1 cells assessed as inhibition of cell viability incubated for 48 hrs by MTT assay; format: functional, cell-based; conditions: 4T1, 48 h
[2] = target: T1, Protein cereblon/Programmed cell death 1 ligand 1 (Mus musculus) (UniProt Q9EP73+Q8C7D2); assay: PROTAC activity at CRBN/PD-L1 in mouse 4T1 cells assessed as protein degradation at 0.312 uM incubated for 24 hrs in presence of MG132 by Western blot analysis; format: cell-based
[3] = test system: 4T1; assay: Antitumor activity against mouse 4T1 cells assessed as decrease in cell viability at 0.078 to 0.312 uM incubated for 24 hrs by LDH assay; format: functional, cell-based; conditions: dose 0.078-0.312 µM
[4] = target: T1, Protein cereblon/Programmed cell death 1 ligand 1 (Mus musculus); assay: PROTAC activity at CRBN/PD-L1 in mouse 4T1 cells assessed as protein degradation at 0.078 to 2.5 uM incubated for 24 hrs by Western blot analysis; format: cell-based; conditions: dose 0.078-2.5 µM
[5] = test system: 4T1; assay: Antitumor activity against mouse 4T1 cells allografted in BALB/c mouse at 60 mg/kg, ip qd for 15 days relative to control; format: functional; conditions: 4T1, 360 h, time 15 day, read-out: TGI
[6] = target: T1, Protein cereblon/Programmed cell death 1 ligand 1 (Mus musculus); assay: PROTAC activity at CRBN/PD-L1 in mouse 4T1 cells assessed as reduction in green fluorescence in cytoplasm at 0.312 uM incubated for 24 hrs by immunofluorescence analysis; format: subcellular
[7] = test system: 4T1; assay: Antitumor activity against mouse 4T1 cells allografted in BALB/c mouse assessed as reduction in tumor weight at 30 to 60 mg/kg, ip qd for 15 days; format: functional, organism-based; conditions: dose 30-60 mg/kg, time 15.0 day
[8] = test system: 4T1; assay: Antitumor activity against mouse 4T1 cells allografted in BALB/c mouse assessed as increase in IFN-gamma mRNA level in tumor at 60 mg/kg, ip qd for 15 days by qRT-PCR analysis; format: functional, organism-based; conditions: time 15.0 day
[9] = Half life in Sprague-Dawley rat at 30 mg/kg, ip measured for 24 hrs by LC-MS/MS analysis; format: ADME, organism-based; conditions: in vivo
[10] = Toxicity in BALB/c mouse allografted with mouse 4T1 cells assessed as pathological change in lung at 30 to 60 mg/kg, ip qd for 15 days by H and E staining based analysis; format: organism-based; conditions: in vivo, 360 h, dose 30-60 mg/kg, time 15 day
[11] = Toxicity in BALB/c mouse allografted with mouse 4T1 cells assessed as pathological change in spleen at 30 to 60 mg/kg, ip qd for 15 days by H and E staining based analysis; format: organism-based; conditions: in vivo, 360 h, dose 30-60 mg/kg, time 15 day
[12] = Toxicity in BALB/c mouse allografted with mouse 4T1 cells assessed as pathological change in kidney at 60 mg/kg, ip qd for 15 days in presence of Paclitaxel by H and E staining based analysis; format: organism-based; conditions: in vivo, 360 h, time 15 day
[13] = test system: 4T1; assay: Antitumor activity against mouse 4T1 cells allografted in BALB/c mouse assessed as reduction in tumor weight at 60 mg/kg, ip qd for 15 days in presence of Paclitaxel; format: functional, organism-based; conditions: time 15.0 day
[14] = target: T2, Protein cereblon/Programmed cell death 1 ligand 1 (Homo sapiens) (UniProt Q9NZQ7+Q96SW2); assay: PROTAC activity at CRBN/PD-L1 in human NCI-H2228 cells assessed as protein degradation at >=5 uM measured for 24 hrs by Western blot analysis; format: cell-based
[15] = target: Protein cereblon/Programmed cell death 1 ligand 1 (Mus musculus, UniProt Q9EP73+Q8C7D2); assay: PROTAC activity at CRBN/PD-L1 in mouse 4T1 cells assessed as protein degradation incubated for 24 hrs by Western blot analysis; format: cell-based
[16] = test system: 4T1; assay: Antitumor activity against mouse 4T1 cells allografted in BALB/c mouse assessed as increase in Prf1 mRNA level in tumor at 60 mg/kg, ip qd for 15 days by qRT-PCR analysis; format: functional, organism-based; conditions: time 15.0 day
[17] = target: T2, Protein cereblon/Programmed cell death 1 ligand 1 (Homo sapiens); assay: PROTAC activity at CRBN/PD-L1 in human MDA-MB-231 cells assessed as protein degradation at >=5 uM measured for 24 hrs by Western blot analysis; format: cell-based
[18] = Cmax in Sprague-Dawley rat at 30 mg/kg, ip measured for 24 hrs by LC-MS/MS analysis; format: ADME, organism-based; conditions: in vivo
[19] = target: T1, Protein cereblon/Programmed cell death 1 ligand 1 (Mus musculus); assay: PROTAC activity at CRBN/PD-L1 in mouse 4T1 cells assessed as protein degradation at 0.312 uM incubated for 24 hrs by Western blot analysis relative to control; format: cell-based
[20] = target: Programmed cell death 1 ligand 1 (Mus musculus, UniProt Q9EP73); assay: Binding affinity to mouse PD-L1 assessed as dissociation constant incubated for 15 mins by MST assay
[21] = test system: 4T1; assay: Antitumor activity against mouse 4T1 cells allografted in BALB/c mouse assessed as increase in CD8+ T cells infiltration in tumor at 30 to 60 mg/kg, ip qd for 15 days by IHC analysis; format: functional, organism-based; conditions: dose 30-60 mg/kg, time 15.0 day
[22] = Toxicity in BALB/c mouse allografted with mouse 4T1 cells assessed as pathological change in lung at 60 mg/kg, ip qd for 15 days in presence of Paclitaxel by H and E staining based analysis; format: organism-based; conditions: in vivo, 360 h, time 15 day
[23] = […] bioavailability in Sprague-Dawley rat at 30 mg/kg, ip measured for 24 hrs by LC-MS/MS analysis; format: ADME, organism-based; conditions: in vivo
[24] = Clearance in Sprague-Dawley rat at 3 mg/kg, iv measured for 24 hrs by LC-MS/MS analysis; format: ADME, organism-based; conditions: in vivo
[25] = Toxicity in BALB/c mouse allografted with mouse 4T1 cells assessed as abnormality in routine blood analysis at 30 to 60 mg/kg, ip qd for 15 days; format: organism-based; conditions: in vivo, 360 h, dose 30-60 mg/kg, time 15 day
[26] = target: T1, Protein cereblon/Programmed cell death 1 ligand 1 (Mus musculus); assay: PROTAC activity at CRBN/PD-L1 in mouse 4T1 cells assessed as protein degradation at 0.078 to 10 uM measured for 48 hrs by Western blot analysis; format: cell-based; conditions: dose 0.078-10 µM
[27] = test system: 4T1; assay: Antitumor activity against mouse 4T1 cells allografted in BALB/c mouse at 30 mg/kg, ip qd for 15 days relative to control; format: functional; conditions: 4T1, 360 h, time 15 day, read-out: TGI

T1 sequence (Q8C7D2 whole entry partner): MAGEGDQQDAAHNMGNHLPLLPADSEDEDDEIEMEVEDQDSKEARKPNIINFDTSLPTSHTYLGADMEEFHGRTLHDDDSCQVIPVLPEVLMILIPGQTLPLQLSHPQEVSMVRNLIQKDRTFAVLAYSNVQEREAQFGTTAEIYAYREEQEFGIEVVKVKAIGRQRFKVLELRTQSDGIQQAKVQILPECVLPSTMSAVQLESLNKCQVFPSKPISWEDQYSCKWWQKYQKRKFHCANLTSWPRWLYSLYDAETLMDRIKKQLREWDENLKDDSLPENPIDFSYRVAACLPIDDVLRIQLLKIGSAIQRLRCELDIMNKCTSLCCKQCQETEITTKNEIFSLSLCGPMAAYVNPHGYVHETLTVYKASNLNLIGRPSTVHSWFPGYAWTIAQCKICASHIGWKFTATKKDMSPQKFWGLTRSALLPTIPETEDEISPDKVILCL
T1 sequence (Q9EP73 19-290 limits assumed): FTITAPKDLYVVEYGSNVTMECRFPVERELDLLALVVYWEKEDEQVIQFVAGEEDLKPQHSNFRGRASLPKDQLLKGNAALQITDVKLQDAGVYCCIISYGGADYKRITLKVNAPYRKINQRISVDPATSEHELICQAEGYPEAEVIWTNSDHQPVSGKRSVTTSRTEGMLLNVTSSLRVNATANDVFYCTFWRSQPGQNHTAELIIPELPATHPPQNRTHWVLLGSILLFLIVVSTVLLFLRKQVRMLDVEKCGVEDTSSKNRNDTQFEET
T2 sequence (Q96SW2 whole entry, looked up): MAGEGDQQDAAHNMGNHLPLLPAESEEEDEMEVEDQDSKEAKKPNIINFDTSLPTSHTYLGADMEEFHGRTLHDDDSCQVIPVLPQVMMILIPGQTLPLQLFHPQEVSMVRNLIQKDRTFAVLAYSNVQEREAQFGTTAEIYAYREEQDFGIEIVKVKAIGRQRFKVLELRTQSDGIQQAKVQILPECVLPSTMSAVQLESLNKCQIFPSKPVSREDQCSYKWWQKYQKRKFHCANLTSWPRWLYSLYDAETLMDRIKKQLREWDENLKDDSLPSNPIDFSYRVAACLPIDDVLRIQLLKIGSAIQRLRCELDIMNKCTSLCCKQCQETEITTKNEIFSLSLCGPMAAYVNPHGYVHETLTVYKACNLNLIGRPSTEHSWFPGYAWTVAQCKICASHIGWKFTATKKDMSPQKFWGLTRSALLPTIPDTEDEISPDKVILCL
T2 sequence (Q9NZQ7 whole entry, looked up): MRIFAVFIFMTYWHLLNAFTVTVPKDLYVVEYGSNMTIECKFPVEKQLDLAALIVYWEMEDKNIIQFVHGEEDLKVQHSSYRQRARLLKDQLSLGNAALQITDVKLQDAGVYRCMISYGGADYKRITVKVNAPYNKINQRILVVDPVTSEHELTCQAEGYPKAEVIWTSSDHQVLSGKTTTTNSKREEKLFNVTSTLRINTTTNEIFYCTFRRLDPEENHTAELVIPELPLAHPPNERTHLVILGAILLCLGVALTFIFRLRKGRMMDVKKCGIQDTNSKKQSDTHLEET
Chain of Programmed cell death 1 ligand 1 (Q9EP73 whole entry): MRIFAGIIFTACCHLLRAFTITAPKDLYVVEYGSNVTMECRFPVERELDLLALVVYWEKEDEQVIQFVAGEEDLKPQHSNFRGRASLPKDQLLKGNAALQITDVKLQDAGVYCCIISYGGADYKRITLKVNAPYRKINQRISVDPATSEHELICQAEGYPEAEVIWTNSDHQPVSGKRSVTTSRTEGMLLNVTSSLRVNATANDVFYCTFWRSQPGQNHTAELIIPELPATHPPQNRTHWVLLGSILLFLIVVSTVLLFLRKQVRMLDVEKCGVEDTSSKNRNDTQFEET
Chain of Protein cereblon/Programmed cell death 1 ligand 1 (Q9EP73 whole entry): as above
Chain of Protein cereblon/Programmed cell death 1 ligand 1 (Q8C7D2 whole entry): as the sequence (Q8C7D2 whole entry partner) above

With `COc1nc(OCc2cccc(-c3ccccc3)c2C)ccc1CNCCNC(=O)CCCCCCCCNC(=O)COc1ccc(C2CCC(=O)NC2=O)cc1` (configuration not stated) the IC50 [1] was 23.1 µM, the Activity [2] was “inactive” and the Activity [3] was “Active”. For the same molecule, the Activity [4] was “Active”, the inhibition in vivo at 60 mg/kg [5] was 83.2% and the Activity [6] was “Active”. The Activity [7] was “Active”, the Activity [8] was “Active” and the half-life [9] was 318 min. For the same molecule, the Activity [10] was “Non-Toxic”, the Activity [11] was “Non-Toxic” and the Activity [12] was “Non-Toxic”. For the same molecule, the Activity [13] was “Active”, the Activity [14] was “Active” and the DC50 [15] was 609 nM. For the same molecule, the Activity [16] was “Active”, the Activity [17] was “Active” and the Cmax [18] was 217 ng/mL. For the same molecule, the Emax [19] was 85%, the Kd [20] was 59.2 µM and the Activity [21] was “Active”. For the same molecule, the Activity [22] was “Non-Toxic”, the bioavailability [23] was 71.2% and the clearance [24] was 471 mL/min/kg. For the same molecule, the Activity [25] was “Non-Toxic”, the Activity [26] was “Active” and the inhibition in vivo at 30 mg/kg [27] was 75%.
